From US4236008A, “Fluorination of precursors for fluorine analogs of hydrocodone and oxycodone” (priority 1978, dated 1980)
Counter-ions that a name gives are not always drawn. Like-named read-outs stand apart in the source and are kept apart here.

Columns and labels:
in vivo = details: mouse, sc, 135 mg/kg
Description: A positive Straub tail response was recorded if a tail was erected for 3 seconds at any time within 25 minutes after dosing. A quantal Straub tail ED50 was calculated by the moving average method and is an indication of physical dependence.

[1] = system: morphine-induced Straub tail; assay: narcotic antagonist (anti-Straub tail) test, prevention of morphine-induced Straub tail; details: Mus musculus, ip, 10 min, read-out: MOUSE ED50 VALUES: ANTI-STRAUB TAIL
Description: The narcotic antagonist (anti-Straub tail) property of the compounds is estimated by their ability to prevent morphine-induced Straub tail in mice. […] Prevention of the induction of a 90° Straub tail for minutes after the morphine sulfate injection is considered to indicate narcotic antagonism in the compound tested.

[2] = system: characteristic stretching or writhing syndrome induced by phenylquinone; assay: standard phenylquinone writhing test (PQW), analgesic activity, oral; details: Mus musculus
Description: A test compound suspended in 1% methylcellulose was given orally to fasted (17-21 hours) female white mice, 5-20 animals per double blind test. Aqueous (0.01% phenyl-p-benzoquinone) phenylquinone was injected intraperitoneally at 24 minutes later using 0.20 ml per mouse. […] This is reported as PQW ED50 in the table below.

[3] = 0.5 h, read-out: MOUSE ED50 VALUES: PQW (peak time value)
[4] = read-out: MOUSE ED50 VALUES: PQW

SMILES	ED50 (in vivo)	ED50 [1]	ED50 [2, 3]	ED50 [2, 4]
COc1ccc2c3c1O[C@H]1C(F)(F)CC[C@H]4[C@@H](C2)N(CC2CC2)CC[C@@]341 [Compound 22, 17-Cyclopropylmethyl-4,5-epoxy-6,6-difluoro-3-methoxymorphinan]	> 54 mg/kg	0.15 mg/kg	2.2 mg/kg	
COc1ccc2c3c1O[C@H]1C(F)(F)CC[C@@]4(O)[C@@H](C2)N(CC2CCC2)CC[C@]314.Cl [Compound 30, 17-Cyclobutylmethyl-4,5α-epoxy-6,6-difluoro-14β-hydroxy-3-methoxymorphinan Hydrochloride]		10.8 mg/kg		26 mg/kg
COc1ccc2c3c1O[C@H]1C(F)(F)CC[C@@]4(F)[C@@H](C2)N(CC2CCC2)CC[C@]314.Cl [Compound 17, 17-Cyclobutylmethyl-4,5α-epoxy-6,6,14β-trifluoro-3-methoxymorphinan Hydrochloride]	> 135 mg/kg	17 mg/kg		> 135 mg/kg
COc1ccc2c3c1O[C@H]1C(F)(F)CC[C@H]4[C@@H](C2)N(CC2CCC2)CC[C@@]341 [Compound 9, 17-Cyclobutylmethyl-4,5-epoxy-6,6-difluoro-3-methoxymorphinan Hydrochloride]	> 135 mg/kg	4.1 mg/kg	2.9 mg/kg	
COc1ccc2c3c1O[C@H]1C(F)=CC[C@H]4[C@@H](C2)N(CC2CC2)CC[C@]314 [Compound 23, 17-Cyclopropylmethyl-6,7-didehydro-4,5-epoxy-6-fluoro-3-methoxymorphinan]	> 135 mg/kg	0.21 mg/kg		18 mg/kg
COc1ccc2c3c1O[C@H]1[C@@H](O)C=C[C@H]4[C@@H](C2)N(C)CC[C@@]341 [Codeine PO4, reference compound]		> 140 mg/kg	4.7 mg/kg	
CN1CC[C@]23c4c5ccc(O)c4O[C@H]2[C@@H](O)C=C[C@H]3[C@H]1C5 [Morphine SO4, reference compound]			3 mg/kg	
COc1ccc2c3c1O[C@H]1C(F)(F)CC[C@H]4[C@@H](C2)N(C)CC[C@@]341 [Compound 4, 17-Methyl-4,5-epoxy-6,6-difluoro-3-methoxymorphinan Hydrochloride]	10 mg/kg	> 81 mg/kg		2.7 mg/kg
COc1ccc2c3c1OC1C(F)C=CC4C(C2)N(C)CCC341 (stereo not drawn) [Ayer 3,137,701, reference compound]		> 162 mg/kg		32 mg/kg
COc1ccc2c3c1O[C@H]1C(F)=CC[C@H]4[C@@H](C2)N(C)CC[C@]314 [Compound 2, 17-Methyl-6,7-didehydro-4,5-epoxy-6-fluoro-3-methoxymorphinan Hydrochloride]	26 mg/kg	94 mg/kg		8 mg/kg
COc1ccc2c3c1O[C@H]1C(F)(F)CC[C@@]4(F)[C@@H](C2)N(CC2CC2)CC[C@]314 [Compound 13, 17-Cyclopropylmethyl-4,5-epoxy-6,6,14β-trifluoro-3-methoxymorphinan H ydrochloride]	> 135 mg/kg			> 135 mg/kg
